From patent publication US20020016981A1, “Methods for producing genetically modified plants, plant materials and plant products produced thereby” (priority 1998, published 2002) come the findings set out here.

Usually inhibition stands for the change of the read-out against control, counted positive when it falls.

Common to all, as to format: cell-based
Experiment [1] deals with Eucalyptus nodal sections. The experiment can be described thus: Acetosyringone in the co-cultivation medium, GUS staining of explants (Example 8). The method, then:
The inclusion of a phenolic compound, acetosyringone, in the co-cultivation medium was tested. Eucalyptus nodal sections were infected with Agrobacterium containing the double 35S-GUS construct, as described in Example 5, and then allowed to co-cultivate on MS+0.4% glucose medium containing acetosyringone, as described in Example 5. Following co-cultivation, explants were placed onto bud induction/selection medium for subsequent growth. Explants were stained for GUS activity as in Example 5 at 4-5 weeks post-infection.

The subject of experiment [2] is stem segments from in vitro micropropagated shoot cultures of E. grandis x nitens clone 910.59. Nature of the experiment: Adventitious bud induction from stem segments of different age at different BA concentrations (Example 1). To be noted: NAA 0.01 mg/l, after 5 weeks in culture. The text has this: (§1) The following examples are offered by way of illustration and not by way of limitation. Examples 1 to 3 describe experiments involving optimization of the regeneration and transformation protocols for Eucalyptus transformation. All refer to adventitious bud induction from stem segments obtained from in vitro micropropagated shoot cultures of E. grandis x nitens clone 910.59 (Fletcher Challenge Forests, Ltd., New Zealand). The tissue culture conditions in all examples, unless otherwise noted, were: temperature 20° C., 16 hour photoperiod, and cool white fluorescent lighting. These tissue culture conditions are generally preferred. All cultures were placed in 20×100 mm Petri dishes, 10 stem segments per dish.
This experiment was designed to determine the best age of stem segments for adventitious bud induction. The basal medium used was full-strength Murashige and Skoog (MS) medium (Sigma M5519) and sucrose 30 g/l. The age of stem segments (apical, 1st, 2nd, 3rd and 4th nodes) were tested in combination with the concentrations of Benzylaminopurine (BA-1, 2 and 3 mg/l). All media contained Naphthalene acetic acid (NAA) at 0.01 mg/l.
In vitro shoots of 3-4 cm were cut into single node segments. The leaves were removed prior to culture. Approximately twenty explants were cultured for each treatment. Cultures were transferred to fresh media every 3 weeks. Adventitious bud development assessments were done after 5 weeks in culture. The percentages of explants forming adventitious shoots for each treatment are listed below.

Experiment [3] shares this test system. Nature of the experiment: Kanamycin inhibition of adventitious bud formation on stem segments (Example 2). To be noted: after 5 weeks in culture.
Source text: as §1
This experiment was designed to determine the optimal concentration of kanamycin to be used for selection of transformed bud tissues. Explants were cultured as described at the end of Example 1, in combination with kanamycin levels of 0, 5, 10, 25, 50 or 100 mg/l. In vitro shoots of 3-4 cm in size were cut into single node segments, and the appropriate segments used. All leaves were removed prior to culture. Approximately thirty explants were used for each treatment. Cultures were transferred to fresh medium after 3 weeks in culture, and the percentage of bud inhibition determined after 5 weeks in culture.

For `COc1cc(C(C)=O)cc(OC)c1O` [Acetosyringone, acetosyringone], the “% of Total GUS-Positive Explants in Buds” value in experiment [1] (5 μM acetosyringone in MS+0.4% glucose co-cultivation medium, GUS staining 4-5 weeks post-infection) is recorded as 8%. The “effect on transformation efficiency” value in experiment [1] (5 μM acetosyringone in the co-cultivation medium) is on record as “enhances transformation efficiency”.

For `c1ccc(CNc2ncnc3[nH]cnc23)cc1` [BA, Benzylaminopurine], the “percentages of explants forming adventitious shoots” value (“percentages” for short) is on record as 25% (5/20) in experiment [2] (Apical Shoot Tips, BA 1 mg/l); 5% (1/20) in experiment [2] (Apical Shoot Tips, BA 2 mg/l); 33% (7/20) in experiment [2] (Apical Shoot Tips, BA 3 mg/l); 57% (12/21) in experiment [2] (First Node, BA 1 mg/l); 35% (7/20) in experiment [2] (First Node, BA 2 mg/l); 20% (4/20) in experiment [2] (First Node, BA 3 mg/l). Moreover, the “percentages” value is 45% (9/20) in experiment [2] (Fourth Node, BA 1 mg/l); 38% (8/21) in experiment [2] (Fourth Node, BA 2 mg/l); 10% (2/20) in experiment [2] (Fourth Node, BA 3 mg/l); 76% (16/21) in experiment [2] (Second Node, BA 1 mg/l); 12% (6/20) in experiment [2] (Second Node, BA 2 mg/l); 20% (4/20) in experiment [2] (Second Node, BA 3 mg/l). The “percentages” value in experiment [2] (Third Node, BA 1 mg/l) is reported as 75% (15/20); in experiment [2] (Third Node, BA 2 mg/l), 15% (3/20); in experiment [2] (Third Node, BA 3 mg/l), 15% (3/20).

With `NC[C@H]1O[C@H](O[C@H]2[C@H](O)[C@@H](O[C@H]3O[C@H](CO)[C@@H](O)[C@H](N)[C@H]3O)[C@H](N)C[C@@H]2N)[C@H](O)[C@@H](O)[C@@H]1O` [Kanamycin, kanamycin], in experiment [3] (840 h, kanamycin 5 mg/l, read-out: % Bud Inhibition Relative To Control), the inhibition at 5 µg/mL is 20%. Also, the inhibition at 10 µg/mL in experiment [3] (840 h, kanamycin 10 mg/l, read-out: % Bud Inhibition Relative To Control) was 41%. The inhibition at 25 µg/mL in experiment [3] (840 h, kanamycin 25 mg/l, read-out: % Bud Inhibition Relative To Control) was 59%. The inhibition at 50 µg/mL in experiment [3] (840 h, kanamycin 50 mg/l, read-out: % Bud Inhibition Relative To Control) came out at 81%. Moreover, in experiment [3] (840 h, kanamycin 100 mg/l, read-out: % Bud Inhibition Relative To Control), the inhibition at 100 µg/mL was found to be 96%. The “% of Stem Segments Forming Adventitious Buds” value in experiment [3] (kanamycin 5 mg/l) is listed as 64% (18/28); in experiment [3] (kanamycin 10 mg/l), 47% (14/30); in experiment [3] (kanamycin 25 mg/l), 33% (10/30); in experiment [3] (kanamycin 50 mg/l), 15% (14/31); in experiment [3] (kanamycin 100 mg/l) it was 3% (1/30).
